Reference: patent US11208400B2, “Substituted 6-(1H-pyrazol-1-yl)pyrimidin-4-amine derivatives and uses thereof” (Bayer Aktiengesellschaft, priority 2016, dated 2021)

Biological target: T1, human Npt2a (Homo sapiens, UniProt Q06495)
T1 construct: expressed in transfected cells
T1 sequence (Q06495 1-639): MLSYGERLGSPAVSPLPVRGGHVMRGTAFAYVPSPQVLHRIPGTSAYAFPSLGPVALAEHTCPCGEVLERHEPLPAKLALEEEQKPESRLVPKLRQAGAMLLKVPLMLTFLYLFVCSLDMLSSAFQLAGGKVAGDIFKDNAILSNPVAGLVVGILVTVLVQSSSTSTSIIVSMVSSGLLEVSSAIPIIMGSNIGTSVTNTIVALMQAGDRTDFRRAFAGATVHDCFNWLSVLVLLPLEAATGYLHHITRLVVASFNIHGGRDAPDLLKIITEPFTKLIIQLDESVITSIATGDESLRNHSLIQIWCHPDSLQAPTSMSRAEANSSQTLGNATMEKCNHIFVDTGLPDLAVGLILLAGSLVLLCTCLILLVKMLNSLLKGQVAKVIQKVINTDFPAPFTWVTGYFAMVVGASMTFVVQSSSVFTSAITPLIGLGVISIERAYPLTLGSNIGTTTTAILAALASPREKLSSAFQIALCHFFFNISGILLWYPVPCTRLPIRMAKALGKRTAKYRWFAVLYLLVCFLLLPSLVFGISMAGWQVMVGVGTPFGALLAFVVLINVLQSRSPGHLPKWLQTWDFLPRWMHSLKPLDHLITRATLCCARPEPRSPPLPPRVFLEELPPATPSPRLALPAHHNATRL
Test: Npt2a activity cell based assay, membrane potential dye, CHO T-REx hNpt2a cells
Conditions: doxycycline-induced, depolarization by sodium phosphate influx, average or median values if tested more than once
Method in brief: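 Cells were doxycycline-induced CHO T-REx hNpt2a, dye-loaded and pretreated 5 min at RT with 1 nM–50 μM compound in Na-free pH 7.4 buffer. IC50 was fit to the post/pre-trigger fluorescence ratio.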

| SMILES | IC50 [nM] |
| --- | --- |
| COCCn1nc(-c2ccc(C(F)F)cc2)c(C)c1Nc1cc(-n2nc(C)c(Cl)c2C)ncn1 [Example 537, 6-(4-chloro-3,5-dimethyl-1H-pyrazol-1-yl)-N-{3-[4-(difluoromethyl)phenyl]-1-(2-methoxyethyl)-4-methyl-1H-pyrazol-5-yl}pyrimidin-4-amine] | 26 |
| COCCn1nc(-c2ccc(C(F)F)cc2)c(C)c1Nc1cc(-n2nc(C)cc2C(F)F)ncn1 [Example 538, 6-[5-(difluoromethyl)-3-methyl-1H-pyrazol-1-yl]-N-{3-[4-(difluoromethyl)phenyl]-1-(2-methoxyethyl)-4-methyl-1H-pyrazol-5-yl}pyrimidin-4-amine] | 12 |
| COCCn1nc(-c2ccc(C(F)F)cc2)c(C)c1Nc1cc(-n2nc(C)c(OC)c2C)ncn1 [Example 539, N-{3-[4-(difluoromethyl)phenyl]-1-(2-methoxyethyl)-4-methyl-1H-pyrazol-5-yl}-6-(4-methoxy-3,5-dimethyl-1H-pyrazol-1-yl)pyrimidin-4-amine] | 20 |
| COc1c(Nc2cc(-n3nc(C)c(Cl)c3C)ncn2)nn(C)c1-c1ccc(C#N)cc1 [Example 540, 4-(3-{[6-(4-chloro-3,5-dimethyl-1H-pyrazol-1-yl)pyrimidin-4-yl]amino}-4-methoxy-1-methyl-1H-pyrazol-5-yl)benzonitrile] | 17 |
| COc1c(Nc2cc(-n3nc(C)c(C(F)(F)F)c3C)ncn2)nn(C)c1-c1ccc(C#N)cc1 [Example 541, 4-[3-({6-[3,5-dimethyl-4-(trifluoromethyl)-1H-pyrazol-1-yl]pyrimidin-4-yl}amino)-4-methoxy-1-methyl-1H-pyrazol-5-yl]benzonitrile] | 260 |
| COCCn1nc(-c2ccc(F)cn2)c(C)c1Nc1cc(-n2nc(C)cc2C)ncn1 [Example 542, 6-(3,5-dimethyl-1H-pyrazol-1-yl)-N-[3-(5-fluoropyridin-2-yl)-1-(2-methoxyethyl)-4-methyl-1H-pyrazol-5-yl]pyrimidin-4-amine] | 28 |
| COCCn1nc(-c2ccc(F)cn2)c(C)c1Nc1cc(-n2nc(C)cc2C(F)F)ncn1 [Example 543, 6-[5-(difluoromethyl)-3-methyl-1H-pyrazol-1-yl]-N-[3-(5-fluoropyridin-2-yl)-1-(2-methoxyethyl)-4-methyl-1H-pyrazol-5-yl]pyrimidin-4-amine] | 480 |
| COCCn1nc(-c2ccc(F)cn2)c(C)c1Nc1cc(-n2nc(C)c(OC)c2C)ncn1 [Example 544, N-[3-(5-fluoropyridin-2-yl)-1-(2-methoxyethyl)-4-methyl-1H-pyrazol-5-yl]-6-(4-methoxy-3,5-dimethyl-1H-pyrazol-1-yl)pyrimidin-4-amine] | 11 |
| CCOC(=O)c1c(C)nn(-c2cc(Nc3c(C)c(-c4ccc(F)cn4)nn3CCOC)ncn2)c1C [Example 545, ethyl 1-(6-{[3-(5-fluoropyridin-2-yl)-1-(2-methoxyethyl)-4-methyl-1H-pyrazol-5-yl]amino}pyrimidin-4-yl)-3,5-dimethyl-1H-pyrazole-4-carboxylate] | 14 |
| CCOC(=O)c1c(C)nn(-c2cc(Nc3c(C)c(-c4ccc(C(F)F)cc4)nn3CCOC)ncn2)c1C [Example 546, ethyl 1-[6-({3-[4-(difluoromethyl)phenyl]-1-(2-methoxyethyl)-4-methyl-1H-pyrazol-5-yl}amino)pyrimidin-4-yl]-3,5-dimethyl-1H-pyrazole-4-carboxylate] | 14 |
| Cc1nn(-c2cc(Nc3c(C)c(-c4ccc(C#N)cc4)nn3C)ncn2)c(C)c1C(F)(F)F [Example 547, 4-[5-({6-[3,5-dimethyl-4-(trifluoromethyl)-1H-pyrazol-1-yl]pyrimidin-4-yl}amino)-1,4-dimethyl-1H-pyrazol-3-yl]benzonitrile] | 29 |
| Cc1cc(C(F)F)n(-c2cc(Nc3c(C)c(-c4ccc(C(F)(F)F)nc4)nn3C)ncn2)n1 [Example 548, 6-[5-(difluoromethyl)-3-methyl-1H-pyrazol-1-yl]-N-{1,4-dimethyl-3-[6-(trifluoromethyl)pyridin-3-yl]-1H-pyrazol-5-yl}pyrimidin-4-amine] | 790 |
| Cc1cc(C)n(-c2cc(Nc3c(C)c(-c4ccc(C(F)(F)F)nc4)nn3C)ncn2)n1 [Example 549, 6-(3,5-dimethyl-H-pyrazol-1-yl)-N-{1,4-dimethyl-3-[6-(trifluoromethyl)pyridin-3-yl]-1H-pyrazol-5-yl}pyrimidin-4-amine] | 2600 |
| Cc1nn(-c2cc(Nc3c(C)c(-c4ccc(C(F)(F)F)nc4)nn3C)ncn2)c(C)c1Cl [Example 550, 6-(4-chloro-3,5-dimethyl-1H-pyrazol-1-yl)-N-{1,4-dimethyl-3-[6-(trifluoromethyl)pyridin-3-yl]-1H-pyrazol-5-yl}pyrimidin-4-amine] | 500 |
| COc1c(C)nn(-c2cc(Nc3c(C)c(-c4ccc(C(F)(F)F)nc4)nn3C)ncn2)c1C [Example 551, N-{1,4-dimethyl-3-[6-(trifluoromethyl)pyridin-3-yl]-1H-pyrazol-5-yl}-6-(4-methoxy-3,5-dimethyl-1H-pyrazol-1-yl)pyrimidin-4-amine] | 1900 |
| Cc1cc(C(F)F)n(-c2cc(Nc3nn(C)c(-c4ccc(C(F)(F)F)nc4)c3C)ncn2)n1 [Example 552, 6-[5-(difluoromethyl)-3-methyl-1H-pyrazol-1-yl]-N-{1,4-dimethyl-5-[6-(trifluoromethyl)pyridin-3-yl]-1H-pyrazol-3-yl}pyrimidin-4-amine] | 15 |
| Cc1nn(-c2cc(Nc3nn(C)c(-c4ccc(C(F)(F)F)nc4)c3C)ncn2)c(C)c1Cl [Example 553, 6-(4-chloro-3,5-dimethyl-1H-pyrazol-1-yl)-N-{1,4-dimethyl-5-[6-(trifluoromethyl)pyridin-3-yl]-1H-pyrazol-3-yl}pyrimidin-4-amine] | 7.2 |
| COCCn1nc(-c2ccc(C#N)cc2)c(C)c1Nc1cc(-n2nc(C)cc2C(F)F)ncn1 [Example 554, 4-[5-({6-[5-(difluoromethyl)-3-methyl-1H-pyrazol-1-yl]pyrimidin-4-yl}amino)-1-(2-methoxyethyl)-4-methyl-1H-pyrazol-3-yl]benzonitrile] | 1.9 |
| COCCn1nc(-c2ccc(C#N)cc2)c(C)c1Nc1cc(-n2nc(C)cc2C)ncn1 [Example 555, 4-[5-{[6-(3,5-dimethyl-1H-pyrazol-1-yl)pyrimidin-4-yl]amino}-1-(2-methoxyethyl)-4-methyl-1H-pyrazol-3-yl]benzonitrile] | 1.6 |
| COC(=O)Nc1c(C)nn(-c2cc(Nc3c(C)c(-c4ccc(F)cc4)nn3CC3CC3)ncn2)c1C [Example 556, methyl [1-(6-{[1-(cyclopropylmethyl)-3-(4-fluorophenyl)-4-methyl-1H-pyrazol-5-yl]amino}pyrimidin-4-yl)-3,5-dimethyl-1H-pyrazol-4-yl]carbamate] | 810 |
| COCCn1nc(-c2ccc(F)cn2)c(C)c1Nc1cc(-n2nc(C)c(C(=O)N(C)C)c2C)ncn1 [Example 557, 1-(6-{[3-(5-fluoropyridin-2-yl)-1-(2-methoxyethyl)-4-methyl-1H-pyrazol-5-yl]amino}pyrimidin-4-yl)-N,N,3,5-tetramethyl-1H-pyrazole-4-carboxamide] | 1000 |
| COCCn1nc(-c2ccc(C(F)F)cc2)c(C)c1Nc1cc(-n2nc(C)c(C(=O)N(C)C)c2C)ncn1 [Example 558, 1-[6-({3-[4-(difluoromethyl)phenyl]-1-(2-methoxyethyl)-4-methyl-1H-pyrazol-5-yl}amino)pyrimidin-4-yl]-N,N,3,5-tetramethyl-1H-pyrazole-4-carboxamide] | 80 |
| Cc1cc(C)n(-c2cc(Nc3nn(C)c(-c4ccc(C(F)(F)F)nc4)c3C)ncn2)n1 [Example 559, 6-(3,5-dimethyl-1H-pyrazol-1-yl)-N-{1,4-dimethyl-5-[6-(trifluoromethyl)pyridin-3-yl]-1H-pyrazol-3-yl}pyrimidin-4-amine] | 110 |
